Laboratory results as given in US6514692B2, “Method for treatment of immunodeficiency virus infection” (priority 1996, dated 2003).
Values joined by “and” are separate entries in the source; they are usually repeats but may differ in a detail not shown here. Equal values may be shown once. Read-outs that look alike come from different tables or passages of the source. Where no end group is shown, it is not given here.

Key:
SK1 isolate of HIV-1 = test system: SK1 isolate of HIV-1
Description: (§1) ME180 cells, a cervical epithelial cell line, were obtained from the American Type Culture Collection. These cells were thawed from liquid nitrogen and grown in RPMI 1640 medium supplemented with 10t fetal bovine serum, glutamine and antibiotics. The cells were adherent and were trypsinized (0.5% trypsin in HBSS) to remove them from the flask for passaging and use in assays. For use in the microtiter transmission inhibition assay, ME180 cells were trypsinized, washed and seeded in 96-well flat bottom microtiter plates (COSTAR) at a density of 5×10^3 cells per well. The cells were incubated at 37° C. for 24 hours prior to the tart of the assay. H9 cells chronically infected with he SK1 isolate of HIV-1 were treated with 200 μg/ml mitomycin C for 60 minutes at 37° C. After treatment the cells were washed three times with tissue culture medium. The chronically infected lymphocytes were added to each well at a density of 2×10^4 cells per well. The concentration of mitomycin C used in the treatment of the lymphocytes was chosen to allow lymphocyte survival for the period of time required to transmit virus to the uninfected ME180 cells, but to die prior to the time of assay so as not to contribute to the p24 signal used as the endpoint (see below). In the transmission assay the lytic peptides D4E1 and D2A21, with and without 150 μg/ml pig mucin, were added prior to the addition of chronically infected cells or were mixed with the chronically infected cells prior to their addition to the monolayer of ME180 cells. Mucin was included because it is an abundant constituent of the normal vaginal secretions of a human being, thus any chemotherapeutic agent targeting HIV should be active in its presence if it is to have clinical value. […] The lymphocytes and peptide were co-cultured with the ME180 cells for 6 hours and then removed by washing the ME180 monolayer four times with PBS. The plate was then incubated at 37° C. for six days. Medium was removed and changed every 48 hours during the incubation stage. No further peptide was added after the initial dose. At six days post-co-cultivation, the supernatant was removed from the wells and evaluated for the quantity of p24 antigen by ELISA. The ELISA was performed according to the manufacturer's recommendations. The amount of virus production in wells treated with various concentrations of the peptides was evaluated with appropriate cell and virus controls. Data are reported as a percent of virus control at each drug concentration. Linear regression analysis was used to calculate the […] and IC95 concentrations of the transmission inhibitor. […] TI represents the toxicity index, which is the ratio of the TC50/IC50, and is an indication of the relative concentrations window that exists between efficacy and toxicity.

[1] = toxicity (XTT) in transmission inhibition assay; conditions: human, ME180 cells
Description: as §1

ME180 cells = test: toxicity (XTT) in transmission inhibition assay; conditions: for TOXICITY VALUES (XTT), single samples: samples 1-3; for TC50 (concentration at which 50% of cells are eliminated): interpolation from % CC
Description: as §1

[2] = 0.32 μg/ml, with 150 μg/ml pig mucin
[3] = 1 μg/ml, with 150 μg/ml pig mucin
[4] = 3.2 μg/ml, with 150 μg/ml pig mucin
[5] = 10 μg/ml, with 150 μg/ml pig mucin
[6] = 32 μg/ml, with 150 μg/ml pig mucin
[7] = 100 μg/ml, with 150 μg/ml pig mucin

For FAKKFAKKFKKFAKKFAKFAFAF [D2A21], the “% VC (p24, percent of virus control)” value (SK1 isolate of HIV-1; 0.32 μg/ml, no mucin) was 81.8%, the “% VC (p24, percent of virus control)” value (SK1 isolate of HIV-1; [2]) was 33.7% and the “% VC (p24, percent of virus control)” value (SK1 isolate of HIV-1; 1 μg/ml, no mucin) was 67.3%. The “% VC (p24, percent of virus control)” value (SK1 isolate of HIV-1; [3]) was 27.7%, the “% VC (p24, percent of virus control)” value (SK1 isolate of HIV-1; 3.2 μg/ml, no mucin) was 40.6% and the “% VC (p24, percent of virus control)” value (SK1 isolate of HIV-1; [4]) was 18.8%. The “% VC (p24, percent of virus control)” value (SK1 isolate of HIV-1; 10 μg/ml, no mucin) was 27.4%, the “% VC (p24, percent of virus control)” value (SK1 isolate of HIV-1; [5]) was 10.1% and the “% VC (p24, percent of virus control)” value (SK1 isolate of HIV-1; 32 μg/ml, no mucin) was 2.2%. For the same sequence, the “% VC (p24, percent of virus control)” value (SK1 isolate of HIV-1; [6]) was 0.0%, the “% VC (p24, percent of virus control)” value (SK1 isolate of HIV-1; 100 μg/ml, no mucin) was 0.0% and the “TI (toxicity index, TC50/IC50)” value (SK1 isolate of HIV-1; no mucin) was “TI = 15”. The “TI (toxicity index, TC50/IC50)” value (SK1 isolate of HIV-1; with 150 μg/ml pig mucin) was “TI = 139”, the viability at 6 h, 0.32 µg/mL [1] was 97.6% and the viability at 6 h, 1 µg/mL [1] was 100%. It also gave a viability at 6 h, 3.2 µg/mL [1] of 97.6%, a viability at 6 h, 10 µg/mL [1] of 95.9% and a viability at 6 h, 32 µg/mL [1] of 61%. The viability at 6 h, 100 µg/mL [1] was 16.4%, the “TOXICITY VALUES (XTT), MEAN” value (ME180 cells; 0.32 μg/ml, no mucin) was 0.515 O.D. @ 450/650 nm and the “TOXICITY VALUES (XTT), single samples” value (ME180 cells; 0.32 μg/ml, no mucin) was 0.541 O.D. @ 450/650 nm and 0.497 O.D. @ 450/650 nm and 0.506 O.D. @ 450/650 nm. The “% CC (XTT, percent of cell control)” value (ME180 cells; [2]) was 97.6%, the “TOXICITY VALUES (XTT), MEAN” value (ME180 cells; [2]) was 0.515 O.D. @ 450/650 nm and the “TOXICITY VALUES (XTT), single samples” value (ME180 cells; [2]) was 0.541 O.D. @ 450/650 nm and 0.497 O.D. @ 450/650 nm and 0.506 O.D. @ 450/650 nm. The “TOXICITY VALUES (XTT), MEAN” value (ME180 cells; 1 μg/ml, no mucin) was 0.528 O.D. @ 450/650 nm, the “TOXICITY VALUES (XTT), single samples” value (ME180 cells; 1 μg/ml, no mucin) was 0.550 O.D. @ 450/650 nm and 0.514 O.D. @ 450/650 nm and 0.520 O.D. @ 450/650 nm and the “% CC (XTT, percent of cell control)” value (ME180 cells; [3]) was 100.1%. For the same sequence, the “TOXICITY VALUES (XTT), MEAN” value (ME180 cells; [3]) was 0.528 O.D. @ 450/650 nm, the “TOXICITY VALUES (XTT), single samples” value (ME180 cells; [3]) was 0.550 O.D. @ 450/650 nm and 0.514 O.D. @ 450/650 nm and 0.520 O.D. @ 450/650 nm and the “TOXICITY VALUES (XTT), MEAN” value (ME180 cells; 3.2 μg/ml, no mucin) was 0.515 O.D. @ 450/650 nm. The “TOXICITY VALUES (XTT), single samples” value (ME180 cells; 3.2 μg/ml, no mucin) was 0.525 O.D. @ 450/650 nm and 0.513 O.D. @ 450/650 nm and 0.506 O.D. @ 450/650 nm, the “% CC (XTT, percent of cell control)” value (ME180 cells; [4]) was 97.6% and the “TOXICITY VALUES (XTT), MEAN” value (ME180 cells; [4]) was 0.515 O.D. @ 450/650 nm. The “TOXICITY VALUES (XTT), single samples” value (ME180 cells; [4]) was 0.525 O.D. @ 450/650 nm and 0.513 O.D. @ 450/650 nm and 0.506 O.D. @ 450/650 nm, the “TOXICITY VALUES (XTT), MEAN” value (ME180 cells; 10 μg/ml, no mucin) was 0.506 O.D. @ 450/650 nm and the “TOXICITY VALUES (XTT), single samples” value (ME180 cells; 10 μg/ml, no mucin) was 0.518 O.D. @ 450/650 nm and 0.506 O.D. @ 450/650 nm and 0.491 O.D. @ 450/650 nm. For the same sequence, the “% CC (XTT, percent of cell control)” value (ME180 cells; [5]) was 95.9%, the “TOXICITY VALUES (XTT), MEAN” value (ME180 cells; [5]) was 0.506 O.D. @ 450/650 nm and the “TOXICITY VALUES (XTT), single samples” value (ME180 cells; [5]) was 0.518 O.D. @ 450/650 nm and 0.508 O.D. @ 450/650 nm and 0.491 O.D. @ 450/650 nm. The “TOXICITY VALUES (XTT), MEAN” value (ME180 cells; 32 μg/ml, no mucin) was 0.322 O.D. @ 450/650 nm, the “TOXICITY VALUES (XTT), single samples” value (ME180 cells; 32 μg/ml, no mucin) was 0.342 O.D. @ 450/650 nm and 0.315 O.D. @ 450/650 nm and 0.308 O.D. @ 450/650 nm and the “% CC (XTT, percent of cell control)” value (ME180 cells; [6]) was 61.04%. For the same sequence, the “TOXICITY VALUES (XTT), MEAN” value (ME180 cells; [6]) was 0.322 O.D. @ 450/650 nm, the “TOXICITY VALUES (XTT), single samples” value (ME180 cells; [6]) was 0.342 O.D. @ 450/650 nm and 0.315 O.D. @ 450/650 nm and 0.308 O.D. @ 450/650 nm and the “TOXICITY VALUES (XTT), MEAN” value (ME180 cells; 100 μg/ml, no mucin) was 0.087 O.D. @ 450/650 nm. The “TOXICITY VALUES (XTT), single samples” value (ME180 cells; 100 μg/ml, no mucin) was 0.061 O.D. @ 450/650 nm and 0.083 O.D. @ 450/650 nm and 0.096 O.D. @ 450/650 nm, the “% CC (XTT, percent of cell control)” value (ME180 cells; [7]) was 16.4% and the “TOXICITY VALUES (XTT), MEAN” value (ME180 cells; [7]) was 0.087 O.D. @ 450/650 nm. The “TOXICITY VALUES (XTT), single samples” value (ME180 cells; [7]) was 0.081 O.D. @ 450/650 nm and 0.083 O.D. @ 450/650 nm and 0.096 O.D. @ 450/650 nm, the “TC50 (concentration at which 50% of cells are eliminated)” value (ME180 cells; no mucin) was “TC50 = 39 μg/ml” and the “TC50 (concentration at which 50% of cells are eliminated)” value (ME180 cells; with 150 μg/ml pig mucin) was “TC50 39 μg/ml”.
